Target: T1, SauBCA (β-carbonic anhydrase from Staphylococcus aureus) (Staphylococcus aureus, UniProt A0AAJ4SIE8)
T1 sequence (A0AAJ4SIE8 1-189): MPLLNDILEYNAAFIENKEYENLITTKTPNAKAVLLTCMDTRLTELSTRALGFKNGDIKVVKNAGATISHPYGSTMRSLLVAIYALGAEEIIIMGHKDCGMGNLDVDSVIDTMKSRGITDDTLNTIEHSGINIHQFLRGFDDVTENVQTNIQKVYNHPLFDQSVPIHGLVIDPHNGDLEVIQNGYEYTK
Assay: Stopped-flow CO2 hydration inhibition assay, SauBCA
Format: biochemical
Conditions: Ki SauBCA, recombinant SauBCA, stopped-flow CO2 hydration, mean from three assays, errors ±5–10%
Protocol: An Applied Photophysics stopped-flow instrument was used for assaying CA-catalysed CO2 hydration activity. […] Six traces of the initial 5 − 10% of the reaction were used to determine the initial velocity. The uncatalysed rates were determined in the same manner and subtracted from the total observed rates. A stock solution of inhibitor (0.1 mM) was prepared in distilled-deionized water, and dilutions of up to 0.01 nM were prepared thereafter with distilled-deionized water. Inhibitor (I) and enzyme (E) solutions were preincubated together for 15 min at RT prior to the assay to allow formation of the E − I complex. Inhibition constants were obtained by using the Cheng-Prusoff equation and nonlinear least squares methods (with PRISM 3) and are presented as the means from at least three different determinations. Kinetic constants were obtained using Lineweaver-Burke plots as reported earlier.

SMILES | Ki [nM]
Nc1ccc(S(N)(=O)=O)cc1 [compound 2] | 409

Same assay, conditions: read-out: Ki SauBCA

Ki [nM] | SMILES
815 | CCN[C@H]1CN(CCCOC)S(=O)(=O)c2sc(S(N)(=O)=O)cc21 [BRZ, brinzolamide]
4550 | NS(=O)(=O)Cc1noc2ccccc12 [ZNS, zonisamide]
863 | CC(=O)/N=c1/sc(S(N)(=O)=O)nn1C [MZA, methazolamide]
871 | Cc1ccc(-c2cc(C(F)(F)F)nn2-c2ccc(S(N)(=O)=O)cc2)cc1 [CLX, celecoxib]
466 | CC1(C)O[C@@H]2[C@@H](CO[C@@]3(COS(N)(=O)=O)OC(C)(C)O[C@@H]23)O1 [TPM]
509 | Cc1onc(-c2ccccc2)c1-c1ccc(S(N)(=O)=O)cc1 [VLX]
909 | Nc1nccc(Nc2ccc(S(N)(=O)=O)cc2)n1 [compound 19]

Same assay, conditions: recombinant SauBCA, stopped-flow CO2 hydration, mean from three assays, errors ±5–10%; read-out: Ki SauBCA

SMILES | Ki [nM]
O=C1NS(=O)(=O)c2ccccc21 [SAC] | 667
Cc1ccc(S(N)(=O)=O)cc1 [compound 4] | 83
NS(=O)(=O)c1cccc(S(N)(=O)=O)c1 [compound 3] | 95
Nc1ccc(S(=O)(=O)Nc2nnc(S(N)(=O)=O)s2)cc1 [compound 20] | 92
Nc1ccc(S(=O)(=O)Nc2ccc(S(N)(=O)=O)cc2)cc1 [compound 22] | 83
NS(=O)(=O)NCCNc1nonc1C(=NO)Nc1ccc(F)c(Br)c1 [EPA, epacadostat] | 538
NS(=O)(=O)c1cc(Cl)cc(Cl)c1O [compound 10] | 202
Nc1ccc(S(=O)(=O)NCc2ccc(S(N)(=O)=O)cc2)cc1 [compound 23] | 92
Nc1ccc(S(N)(=O)=O)cc1Cl [compound 8] | 95
Nc1ccc(S(N)(=O)=O)cc1Br [compound 9] | 75
NCc1ccc(S(N)(=O)=O)cc1 [compound 5] | 193
NS(=O)(=O)c1ccc(CCNS(=O)(=O)c2ccc([N+](=O)[O-])cc2CO)cc1 [compound 21] | 85
Nc1nnc(S(N)(=O)=O)s1 [compound 13] | 417
Nc1ccc(S(=O)(=O)NCCc2ccc(S(N)(=O)=O)cc2)cc1 [compound 24] | 96
NS(=O)(=O)c1ccc(CO)cc1 [compound 16] | 603

Target: hCA II
Assay: not given
Conditions: human recombinant isozyme, Table 2; cited from earlier work

SMILES | Ki [nM]
NC(N)=Nc1nc(CSCCC(N)=NS(N)(=O)=O)cs1 [FAM, famotidine] | 58
NS(=O)(=O)NCCNc1nonc1C(=NO)Nc1ccc(F)c(Br)c1 [EPA, epacadostat] | 917

Reference: article PMC7534311, “Sulphonamide inhibition profile of Staphylococcus aureus β-carbonic anhydrase” (Journal of Enzyme Inhibition and Medicinal Chemistry, 2020)
